Legend:
PD-1/PD-L1 = molecular target: T1, PD-1/PD-L1 (Homo sapiens, UniProt Q9NZQ7); test: PD-1/PD-L1 Homogeneous Time-Resolved Fluorescence (HTRF) Binding Assay; conditions: PD-1/PD-L1 HTRF activity; 3 nM PD1, 10 nM PD-L1, 25° C.
T1 construct: Recombinant human PD-L1 protein (19-238) with a Histag at the C-terminus; purchased AcroBiosystems PD1-H5229 (PD-L1); PD1-H5257 (PD-1)
How it was run: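 Human PD-L1 (19-238, His-tag) 10 nM and PD-1 (25-167, Fc-tag) 3 nM preincubated 40 min with inhibitor in PBS pH 7.4, 0.05% Tween-20, 0.1% BSA, 1% DMSO, 25 °C. Eu-anti-human IgG (1 nM) and anti-His-APC (20 nM) added, 60 min, 665/620 nm ratio; IC50 from percent control activity versus log concentration.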

PDL1 = PDL1 Jurkat-NFAT Reporter Assay; format: cell-based; conditions: Homo sapiens; Hep3B-OS8-hPDL1 with Jurkat-NFAT-PD1 cells, 6 hours, luciferase
Description: Example 109. PDL1 Jurkat-NFAT Reporter Assay
Preparation of Hep3B-OS8-hPDL1
1. Hep3B-OS8-hPDL1 cells were cultured in 1640 medium supplemented with 10% fetal bovine serum, 1% penicillin and streptomycin, in which 100 μg/mL G418 and Hygromycin B were also added.
2. Cells were re-suspended with RPMI 1640 medium containing 10% FBS and the cell density was adjusted to 1.25×10^5 cells/mL.
3. Cells were seeded into 96-well flat bottom plate (1.25×10^4 cells/100 μL/well).
b. Compounds solutions preparation
4. Removed the medium from pre-plated Hep3B-OS8-PDL1 cells. Washed once with 200 μL Assay Medium.
5. Prepared the Compounds dilutions in RPMI 1640 medium with 10% FBS according to the Layout.
6. Added compounds into each well in a volume of 50 μL in 9 concentrations ([…])}. Keytruda will be included as positive control at the concentration of 5 μg/mL.
7. Incubated for 20-30 min at 37° C., 5% CO2.
c. Preparation of Jurkat-NFAT-PD1
8. Jurkat-NFAT-PD1 cells were cultured in 1640 medium supplemented with 10% fetal bovine serum, 1% penicillin and streptomycin, in which 1000 μg/mL Hygromycin B and […] puromycin were also added.
9. On the second day of assay, the cells were re-suspended with RPMI 1640 medium containing 10% FBS and the cell density was adjusted to 2.5×10^5 cells/mL.
10. […]

T1 sequence (Q9NZQ7 19-238): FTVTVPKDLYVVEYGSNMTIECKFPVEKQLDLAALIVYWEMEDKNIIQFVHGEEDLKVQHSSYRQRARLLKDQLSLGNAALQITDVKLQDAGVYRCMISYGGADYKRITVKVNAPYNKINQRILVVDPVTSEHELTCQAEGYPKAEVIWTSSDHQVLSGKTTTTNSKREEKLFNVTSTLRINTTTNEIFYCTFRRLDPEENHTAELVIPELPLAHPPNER

In the case of `O=C1CC[C@@H](Cn2cnn3cc(-c4cccc(-c5cccc(-c6cc7c(=O)n(C[C@@H]8CCC(=O)N8)cnn7c6)c5Cl)c4Cl)cc3c2=O)N1` [Compound 1, 6,6′-(2,2′-dichloro-[1,1′-biphenyl]-3,3′-diyl)bis(3-((5-oxopyrrolidin-2-yl)methyl)pyrrolo[2,1-f][1,2,4]triazin-4(3H)-one)], the IC50 (PD-1/PD-L1) is reported as under 10 nM and the EC50 (PDL1) is reported as under 500 nM.

— patent US20260248783A1 (ASCLETIS BIOSCIENCE CO., LTD., priority 2021, published 2026)
